The numbers were not newly measured in patent publication US8222294B2, “Combinations of an anti emetic agent and an enkephalinase inhibitor” (Bioproject, priority 2004, dated 2012), which cites them from elsewhere.

This data set concerns cholera toxins. The note with it: cited from earlier work.
Consider `CC(=O)SC[C@H](Cc1ccccc1)C(=O)NCC(=O)OCc1ccccc1` [dexecadotril], for which the antisecretory activity result is listed as “active”.
As for `Cc1nccn1CC1CCc2c(c3ccccc3n2C)C1=O` (stereo not drawn) [ondansetron], the antisecretory activity entry is recorded as “not”.
`CC(=O)SCC(Cc1ccccc1)C(=O)NCC(=O)OCc1ccccc1` (stereo not drawn) [racecadotril]: the antisecretory activity result is listed as “active”.
